Assay results: ChEMBL document CHEMBL1157938, “Cytotoxicity and inhibition of DNA topoisomerase I of polyhydroxylated triterpenoids and triterpenoid glycosides” (Bioorg Med Chem Lett, 2010)
Blank lines part the entries; values can stand above or below the compound they belong to. Active and inactive are the calls of the source. The calls are words filed in the database; no cut-off is given here.

Tests used:
[1] = test system: A549; experiment: Cytotoxicity against human A549 cells at 25 uM after 48 hrs by WST8 assay; type: functional, cell-based
[2] = test system: PC-3; experiment: Cytotoxicity against human PC3 cells at 25 uM after 48 hrs by WST8 assay; type: functional, cell-based
[3] = molecular target: DNA topoisomerase 2-alpha (Homo sapiens, UniProt P11388); experiment: Inhibition of human DNA topoisomerase 2-mediated relaxation of supercoiled DNA by gel electrophoresis
[4] = test system: PANC-1; experiment: Cytotoxicity against human PANC1 cells at 25 uM after 48 hrs by WST8 assay; type: functional, cell-based
[5] = molecular target: T1, DNA topoisomerase 1 (Homo sapiens, UniProt P11387); experiment: Inhibition of human DNA topoisomerase 1-mediated relaxation of supercoiled DNA by gel electrophoresis
T1 sequence (P11387 whole entry): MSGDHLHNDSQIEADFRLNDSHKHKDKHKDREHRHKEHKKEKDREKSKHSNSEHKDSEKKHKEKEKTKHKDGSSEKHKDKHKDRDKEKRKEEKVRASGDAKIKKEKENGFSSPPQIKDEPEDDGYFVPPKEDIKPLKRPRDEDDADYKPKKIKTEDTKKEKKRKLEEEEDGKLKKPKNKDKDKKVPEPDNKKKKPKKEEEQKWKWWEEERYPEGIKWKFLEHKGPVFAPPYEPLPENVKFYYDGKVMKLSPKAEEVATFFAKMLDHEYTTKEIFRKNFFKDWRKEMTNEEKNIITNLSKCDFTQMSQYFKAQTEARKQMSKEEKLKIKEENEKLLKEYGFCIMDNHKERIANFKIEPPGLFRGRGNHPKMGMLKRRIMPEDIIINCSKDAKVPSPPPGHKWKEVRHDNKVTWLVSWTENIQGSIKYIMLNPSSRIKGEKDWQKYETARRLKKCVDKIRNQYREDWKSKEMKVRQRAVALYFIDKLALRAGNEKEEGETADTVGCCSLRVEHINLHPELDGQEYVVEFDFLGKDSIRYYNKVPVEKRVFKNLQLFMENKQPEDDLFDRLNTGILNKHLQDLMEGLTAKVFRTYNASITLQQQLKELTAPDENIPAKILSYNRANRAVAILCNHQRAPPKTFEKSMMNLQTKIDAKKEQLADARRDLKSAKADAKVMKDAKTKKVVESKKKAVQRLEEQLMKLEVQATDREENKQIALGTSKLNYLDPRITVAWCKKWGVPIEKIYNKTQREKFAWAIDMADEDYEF

[6] = test system: HL-60; experiment: Cytotoxicity against human HL60 cells at 25 uM after 48 hrs by WST8 assay; type: functional, cell-based

Sequence of DNA topoisomerase 2-alpha (P11388 whole entry): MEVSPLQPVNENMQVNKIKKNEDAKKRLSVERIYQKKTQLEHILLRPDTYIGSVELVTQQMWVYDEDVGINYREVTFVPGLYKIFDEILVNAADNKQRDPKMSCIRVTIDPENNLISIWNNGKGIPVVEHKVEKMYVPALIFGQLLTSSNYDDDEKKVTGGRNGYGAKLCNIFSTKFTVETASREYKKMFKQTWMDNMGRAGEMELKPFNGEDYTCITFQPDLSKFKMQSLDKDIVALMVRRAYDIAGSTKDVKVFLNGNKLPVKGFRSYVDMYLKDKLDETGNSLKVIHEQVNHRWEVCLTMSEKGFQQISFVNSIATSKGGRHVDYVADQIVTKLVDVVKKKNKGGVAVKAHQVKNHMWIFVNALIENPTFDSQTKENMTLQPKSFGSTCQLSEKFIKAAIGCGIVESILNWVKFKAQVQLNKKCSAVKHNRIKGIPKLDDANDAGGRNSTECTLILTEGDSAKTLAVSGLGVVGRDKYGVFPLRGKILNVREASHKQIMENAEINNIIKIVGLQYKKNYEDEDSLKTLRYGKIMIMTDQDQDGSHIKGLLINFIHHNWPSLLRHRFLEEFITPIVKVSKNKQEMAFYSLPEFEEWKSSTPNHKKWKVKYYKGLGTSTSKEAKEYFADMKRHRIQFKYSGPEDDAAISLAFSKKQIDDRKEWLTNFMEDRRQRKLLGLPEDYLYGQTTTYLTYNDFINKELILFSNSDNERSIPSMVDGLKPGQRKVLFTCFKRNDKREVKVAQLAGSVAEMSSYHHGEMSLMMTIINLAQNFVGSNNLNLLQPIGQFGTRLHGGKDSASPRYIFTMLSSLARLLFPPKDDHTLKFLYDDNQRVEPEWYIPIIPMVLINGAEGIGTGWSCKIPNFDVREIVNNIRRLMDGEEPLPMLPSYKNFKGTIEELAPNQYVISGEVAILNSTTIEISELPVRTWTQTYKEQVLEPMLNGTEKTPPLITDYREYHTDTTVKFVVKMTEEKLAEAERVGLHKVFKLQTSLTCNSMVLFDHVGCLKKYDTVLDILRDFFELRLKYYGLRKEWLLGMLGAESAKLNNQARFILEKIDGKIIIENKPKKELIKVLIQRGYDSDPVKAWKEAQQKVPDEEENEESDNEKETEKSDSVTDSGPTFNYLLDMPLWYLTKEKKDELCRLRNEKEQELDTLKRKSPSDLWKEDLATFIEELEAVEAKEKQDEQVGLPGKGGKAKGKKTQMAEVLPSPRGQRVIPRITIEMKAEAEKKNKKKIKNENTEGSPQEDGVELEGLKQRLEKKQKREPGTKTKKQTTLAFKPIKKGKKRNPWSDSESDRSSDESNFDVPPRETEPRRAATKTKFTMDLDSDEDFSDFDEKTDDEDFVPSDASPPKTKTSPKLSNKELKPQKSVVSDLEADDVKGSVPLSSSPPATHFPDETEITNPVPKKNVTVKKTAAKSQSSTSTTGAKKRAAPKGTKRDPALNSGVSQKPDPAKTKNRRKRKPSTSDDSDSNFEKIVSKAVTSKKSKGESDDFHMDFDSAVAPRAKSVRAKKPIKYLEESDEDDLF

SMILES: CC(C)=CCC[C@](C)(O)[C@H]1CC[C@]2(C)[C@@H]1[C@H](O)C[C@@H]1[C@@]3(C)CC[C@H](O)C(C)(C)[C@@H]3[C@@H](O[C@@H]3O[C@H](CO)[C@@H](O)[C@H](O)[C@H]3O[C@H]3O[C@@H](C)[C@H](O)[C@@H](O)[C@H]3O)C[C@]12C
growth inhibition (GI) [1]: inactive | growth inhibition (GI) [2]: inactive | IC50 [3]: > 250 µM | growth inhibition (GI) [4]: inactive | IC50 [5]: > 250 µM | growth inhibition (GI) [6]: inactive

SMILES: CC(C)=CCC[C@@](C)(O)[C@H]1CC[C@]2(C)[C@@H]1[C@H](O)C[C@@H]1[C@@]3(C)CC[C@H](O)C(C)(C)[C@@H]3[C@@H](O[C@@H]3O[C@H](CO)[C@@H](O)[C@H](O)[C@H]3O[C@H]3O[C@@H](C)[C@H](O)[C@@H](O)[C@H]3O)C[C@]12C
growth inhibition (GI) [1]: inactive | growth inhibition (GI) [2]: inactive | IC50 [3]: > 250 µM | growth inhibition (GI) [4]: inactive | IC50 [5]: > 250 µM | growth inhibition (GI) [6]: inactive

SMILES: CC(C)=CCC[C@@](C)(O)[C@H]1CC[C@]2(C)[C@@H]1[C@H](O)C[C@@H]1[C@@]3(C)CC[C@H](O[C@@H]4O[C@H](CO)[C@@H](O)[C@H](O)[C@H]4O[C@@H]4O[C@H](CO)[C@@H](O)[C@H](O)[C@H]4O)C(C)(C)[C@@H]3CC[C@]12C
growth inhibition (GI) [1]: inactive | growth inhibition (GI) [2]: inactive | IC50 [3]: > 250 µM | growth inhibition (GI) [4]: inactive | IC50 [5]: > 250 µM | growth inhibition (GI) [6]: inactive

SMILES: CC(C)=CC/C=C(/C)[C@H]1CC[C@]2(C)[C@@H]1[C@H](O)C[C@@H]1[C@@]3(C)CC[C@H](O)C(C)(C)[C@@H]3[C@@H](O)C[C@]12C
growth inhibition (GI) [1]: inactive | growth inhibition (GI) [2]: inactive | IC50 [3]: > 250 µM | growth inhibition (GI) [4]: inactive | IC50 [5]: > 250 µM | growth inhibition (GI) [6]: inactive

SMILES: C=C(C)[C@@H]1CC[C@]2(C)CC[C@]3(C)[C@@H](CC[C@@H]4[C@@]5(C)CC[C@H](OC(C)=O)C(C)(C)[C@@H]5CC[C@]43C)[C@H]12
growth inhibition (GI) [1]: inactive | growth inhibition (GI) [2]: inactive | IC50 [3]: > 250 µM | growth inhibition (GI) [4]: inactive | growth inhibition (GI) [6]: inactive

SMILES: CC(C)=CCC[C@](C)(O)[C@H]1CC[C@]2(C)[C@@H]1[C@H](O)C[C@@H]1[C@@]3(C)CC[C@H](O[C@@H]4O[C@H](CO)[C@@H](O)[C@H](O)[C@H]4O[C@@H]4O[C@H](CO)[C@@H](O)[C@H](O)[C@H]4O)C(C)(C)[C@@H]3CC[C@]12C
growth inhibition (GI) [1]: inactive | growth inhibition (GI) [2]: inactive | IC50 [3]: > 250 µM | growth inhibition (GI) [4]: inactive | IC50 [5]: > 250 µM | growth inhibition (GI) [6]: inactive

SMILES: CC(C)=CCC[C@](C)(O[C@@H]1O[C@H](CO)[C@@H](O)[C@H](O)[C@H]1O)[C@H]1CC[C@]2(C)[C@@H]1[C@H](O)C[C@@H]1[C@@]3(C)CC[C@H](O[C@@H]4O[C@H](CO)[C@@H](O)[C@H](O)[C@H]4O)C(C)(C)[C@@H]3CC[C@]12C [GINSENOSIDE F2]
growth inhibition (GI) [1]: inactive | growth inhibition (GI) [2]: inactive | IC50 [3]: > 250 µM | growth inhibition (GI) [4]: inactive | IC50 [5]: > 250 µM | growth inhibition (GI) [6]: inactive

SMILES: CC(C)=CCC[C@](C)(O[C@@H]1O[C@H](CO[C@@H]2OC[C@H](O)[C@H](O)[C@H]2O)[C@@H](O)[C@H](O)[C@H]1O)[C@H]1CC[C@]2(C)[C@@H]1[C@H](O)C[C@@H]1[C@@]3(C)CC[C@H](O)C(C)(C)[C@@H]3[C@@H](O)C[C@]12C [GINSENOSIDE F3]
growth inhibition (GI) [1]: inactive | growth inhibition (GI) [2]: inactive | IC50 [3]: > 250 µM | growth inhibition (GI) [4]: inactive | IC50 [5]: > 250 µM | growth inhibition (GI) [6]: inactive

SMILES: CC(C)=CCC[C@](C)(O[C@@H]1O[C@H](CO[C@H]2O[C@H](CO)[C@@H](O)[C@@H]2O)[C@@H](O)[C@H](O)[C@H]1O)[C@H]1CC[C@]2(C)[C@@H]1[C@H](O)C[C@@H]1[C@@]3(C)CC[C@H](O)C(C)(C)[C@@H]3[C@@H](O)C[C@]12C [GINSENOSIDE F5]
growth inhibition (GI) [1]: inactive | growth inhibition (GI) [2]: inactive | IC50 [3]: > 250 µM | growth inhibition (GI) [4]: inactive | IC50 [5]: > 250 µM | growth inhibition (GI) [6]: inactive

More lines, main results first:

IC50 [3]: > 250 µM | IC50 [5]: > 250 µM
SMILES: C[C@H]1[C@H](C)CC[C@]2(C(=O)O[C@@H]3O[C@H](CO)[C@@H](O)[C@H](O)[C@H]3O)CC[C@]3(C(=O)O)C(=CC[C@@H]4[C@@]5(C)CC[C@H](O)C(C)(C)[C@@H]5CC[C@]43C)[C@H]12
growth inhibition (GI) [1]: inactive | growth inhibition (GI) [2]: inactive | growth inhibition (GI) [4]: inactive | growth inhibition (GI) [6]: inactive

IC50 [3]: > 250 µM | IC50 [5]: > 250 µM
SMILES: C[C@H]1[C@H](C)CC[C@]2(C(=O)O[C@@H]3O[C@H](CO)[C@@H](O)[C@H](O)[C@H]3O)CC[C@]3(C(=O)O)C(=CC[C@@H]4[C@@]5(C)CC[C@H](O[C@H]6O[C@@H](C)[C@H](O)[C@@H](O)[C@@H]6O)C(C)(C)[C@@H]5CC[C@]43C)[C@H]12
growth inhibition (GI) [1]: inactive | growth inhibition (GI) [2]: inactive | growth inhibition (GI) [4]: inactive | growth inhibition (GI) [6]: inactive

IC50 [3]: > 250 µM | IC50 [5]: > 250 µM
SMILES: C[C@H]1[C@H](C)CC[C@]2(C(=O)O)CC[C@]3(C(=O)O)C(=CC[C@@H]4[C@@]5(C)CC[C@H](O[C@H]6O[C@@H](C)[C@H](O)[C@@H](O)[C@H]6O)C(C)(C)[C@@H]5CC[C@]43C)[C@H]12
growth inhibition (GI) [1]: inactive | growth inhibition (GI) [2]: inactive | growth inhibition (GI) [4]: inactive | growth inhibition (GI) [6]: inactive

IC50 [3]: > 250 µM | IC50 [5]: > 250 µM
SMILES: C[C@H]1[C@H](C)CC[C@]2(C(=O)O[C@@H]3O[C@H](CO)[C@@H](O)[C@H](O)[C@H]3O)CC[C@]3(C(=O)O)C(=CC[C@@H]4[C@@]5(C)CC[C@H](O[C@@H]6O[C@H](CO)[C@@H](O[C@H]7O[C@@H](C)[C@H](O)[C@@H](O)[C@H]7O)[C@H](O)[C@H]6O)C(C)(C)[C@@H]5CC[C@]43C)[C@H]12
growth inhibition (GI) [1]: inactive | growth inhibition (GI) [2]: inactive | growth inhibition (GI) [4]: inactive | growth inhibition (GI) [6]: inactive

IC50 [3]: > 250 µM | IC50 [5]: > 250 µM
SMILES: C[C@H]1[C@H](C)CC[C@]2(C(=O)O[C@@H]3O[C@H](CO)[C@@H](O)[C@H](O)[C@H]3O[C@@H]3OC[C@H](O)[C@H](O)[C@H]3O)CC[C@]3(C(=O)O)C(=CC[C@@H]4[C@@]5(C)CC[C@H](O[C@@H]6O[C@H](CO)[C@@H](O)[C@H](O)[C@H]6O)C(C)(C)[C@@H]5CC[C@]43C)[C@H]12
growth inhibition (GI) [1]: inactive | growth inhibition (GI) [2]: inactive | growth inhibition (GI) [4]: inactive | growth inhibition (GI) [6]: inactive

IC50 [3]: > 250 µM | IC50 [5]: > 250 µM
SMILES: C[C@H]1[C@H](C)CC[C@]2(C(=O)O)CC[C@]3(C(=O)O)C(=CC[C@@H]4[C@@]5(C)C[C@@H](O)[C@H](O)C(C)(C)[C@@H]5CC[C@]43C)[C@H]12
growth inhibition (GI) [1]: inactive | growth inhibition (GI) [2]: inactive | growth inhibition (GI) [4]: inactive | growth inhibition (GI) [6]: inactive

IC50 [3]: > 250 µM | IC50 [5]: > 250 µM
SMILES: C[C@H]1[C@H](C)CC[C@]2(C(=O)O[C@@H]3O[C@H](CO)[C@@H](O)[C@H](O)[C@H]3O)CC[C@]3(C(=O)O)C(=CC[C@@H]4[C@@]5(C)CC[C@H](O[C@@H]6O[C@H](CO)[C@@H](O)[C@H](O)[C@H]6O)C(C)(C)[C@@H]5CC[C@]43C)[C@H]12
growth inhibition (GI) [1]: inactive | growth inhibition (GI) [2]: inactive | growth inhibition (GI) [4]: inactive | growth inhibition (GI) [6]: inactive

IC50 [3]: > 250 µM | IC50 [5]: > 250 µM
SMILES: C[C@H]1[C@H](C)CC[C@]2(C(=O)O)CC[C@]3(C(=O)O)C(=CC[C@@H]4[C@@]5(C)CC[C@H](O[C@@H]6O[C@H](CO)[C@@H](O)[C@H](O)[C@H]6O)C(C)(C)[C@@H]5CC[C@]43C)[C@H]12
growth inhibition (GI) [1]: inactive | growth inhibition (GI) [2]: inactive | growth inhibition (GI) [4]: inactive | growth inhibition (GI) [6]: inactive

IC50 [3]: > 250 µM
SMILES: C=C(C)[C@@H]1CC[C@]2(C)CC[C@]3(C)[C@H](CC[C@@H]4[C@@]5(C)CC[C@H](O)C(C)(C)[C@@H]5CC[C@]43C)[C@@H]12 [LUPEOL]
growth inhibition (GI) [1]: inactive | growth inhibition (GI) [2]: inactive | growth inhibition (GI) [4]: inactive | growth inhibition (GI) [6]: inactive
